In patent US11717508B2, “Compounds, compositions, and methods for inhibiting bacterial growth” (priority 2016, dated 2023):

Test system: DosRST regulon
Assay type: cell-based
Settings: 40 μM, 6 days, >2-fold, p<0.05

## C[C@@H]1CC(C)(C)C[C@]2(C1)NC(=O)NC2=O (racemic) [HC102A, 7,7,9-trimethyl-1,3-diazaspiro[4.5]decane-2,4-dione]
  genes downregulated by compound that are also downregulated in the CDC1551(ΔdosR) mutant: 48 genes
